Assay results reported in US11613522B2, “Herbicidally active 3-phenylisoxazoline-5-carboxamides of tetrahydro- and dihydrofurancarboxamides” (BAYER AKTIENGESELLSCHAFT, priority 2017, dated 2023).

Columns and labels:
Type in all cases: in vivo
Alopecurus myosuroides [1] = experiment: Pre-emergence herbicidal activity against ALOMY; settings: dosage 80 g/ha, scored visually after about 3 weeks vs untreated controls
Text: (§1) 1. Pre-emergence herbicidal action against harmful plants and crop plant compatibility Seeds of monocotyledonous and dicotyledonous weed plants and crop plants are placed in plastic or wood fiber pots and covered with soil. The compounds of the invention, formulated in the form of wettable powders (WP) or as emulsion concentrates (EC), are then applied onto the surface of the covering soil as aqueous suspension or emulsion with addition of 0.5% additive at a water application rate of 600 l/ha (converted). After the treatment, the pots are placed in a greenhouse and kept under good growth conditions for the trial plants. After about 3 weeks, the effect of the preparations is scored visually in comparison with untreated controls as percentages. For example, 100% activity=the plants have died, 0% activity=like control plants. [table]

Avena fatua [2] = experiment: Pre-emergence herbicidal activity against AVEFA; settings: dosage 80 g/ha, scored visually after about 3 weeks vs untreated controls
Text: as §1

Echinochloa crus-galli [3] = experiment: Pre-emergence herbicidal activity against ECHCG; settings: dosage 80 g/ha, scored visually after about 3 weeks vs untreated controls
Text: as §1

Lolium rigidum [4] = experiment: Pre-emergence herbicidal activity against LOLRI; settings: dosage 80 g/ha, scored visually after about 3 weeks vs untreated controls
Text: as §1

Setaria viridis [5] = experiment: Pre-emergence herbicidal activity against SETVI; settings: dosage 80 g/ha, scored visually after about 3 weeks vs untreated controls
Text: as §1

Amaranthus retroflexus [6] = experiment: Pre-emergence herbicidal activity against AMARE; settings: dosage 80 g/ha, scored visually after about 3 weeks vs untreated controls
Text: as §1

Polygonum convolvulus [7] = experiment: Pre-emergence herbicidal activity against POLCO; settings: dosage 80 g/ha, scored visually after about 3 weeks vs untreated controls
Text: as §1

Stellaria media [8] = experiment: Pre-emergence herbicidal activity against STEME; settings: dosage 80 g/ha, scored visually after about 3 weeks vs untreated controls
Text: as §1

Viola tricolor [9] = experiment: Pre-emergence herbicidal activity against VIOTR; settings: dosage 80 g/ha, scored visually after about 3 weeks vs untreated controls
Text: as §1

Veronica persica [10] = experiment: Pre-emergence herbicidal activity against VERPE; settings: dosage 80 g/ha
Text: as §1

Hordeum murinum [11] = experiment: Pre-emergence herbicidal activity against HORMU; settings: dosage 80 g/ha
Text: as §1

Alopecurus myosuroides [12] = experiment: Post-emergence herbicidal activity against ALOMY; settings: dosage 320 g/ha, rated visually after about 3 weeks
Method: (§2) [table] Seeds of monocotyledonous and dicotyledonous weeds and crop plants are placed in sandy loam in plastic or wood-fiber pots, covered with soil and cultivated in a greenhouse under controlled growth conditions. 2 to 3 weeks after sowing, the test plants are treated at the one-leaf stage. The compounds of the invention, formulated in the form of wettable powders (WP) or as emulsion concentrates (EC), are then sprayed onto the green parts of the plants as aqueous suspension or emulsion with addition of 0.5% additive at a water application rate of 600 l/ha (converted). After the test plants had been kept in the greenhouse under optimum growth conditions for about 3 weeks, the activity of the preparations is rated visually in comparison to untreated controls. For example, 100% activity=the plants have died, 0% activity=like control plants.

Avena fatua [13] = experiment: Post-emergence herbicidal activity against AVEFA; settings: dosage 320 g/ha, rated visually after about 3 weeks
Method: as §2

Echinochloa crus-galli [14] = experiment: Post-emergence herbicidal activity against ECHCG; settings: dosage 320 g/ha, rated visually after about 3 weeks
Method: as §2

Lolium rigidum [15] = experiment: Post-emergence herbicidal activity against LOLRI; settings: dosage 320 g/ha, rated visually after about 3 weeks
Method: as §2

Setaria viridis [16] = experiment: Post-emergence herbicidal activity against SETVI; settings: dosage 320 g/ha, rated visually after about 3 weeks
Method: as §2

Abutilon theophrasti = experiment: Post-emergence herbicidal activity against ABUTH; settings: dosage 320 g/ha, rated visually after about 3 weeks
Method: as §2

Amaranthus retroflexus [17] = experiment: Post-emergence herbicidal activity against AMARE; settings: dosage 320 g/ha, rated visually after about 3 weeks
Method: as §2

Pharbitis purpurea = experiment: Post-emergence herbicidal activity against PHBPU; settings: dosage 320 g/ha, rated visually after about 3 weeks
Method: as §2

Polygonum convolvulus [18] = experiment: Post-emergence herbicidal activity against POLCO; settings: dosage 320 g/ha, rated visually after about 3 weeks
Method: as §2

Stellaria media [19] = experiment: Post-emergence herbicidal activity against STEME; settings: dosage 320 g/ha, rated visually after about 3 weeks
Method: as §2

Viola tricolor [20] = experiment: Post-emergence herbicidal activity against VIOTR; settings: dosage 320 g/ha, rated visually after about 3 weeks
Method: as §2

Veronica persica [21] = experiment: Post-emergence herbicidal activity against VERPE; settings: dosage 320 g/ha, rated visually after about 3 weeks
Method: as §2

Hordeum murinum [22] = experiment: Post-emergence herbicidal activity against HORMU; settings: dosage 320 g/ha, rated visually after about 3 weeks
Method: as §2

## CN(C)NC(=O)[C@@H]1C[C@H](NC(=O)[C@@]2(C)CC(c3cc(F)cc(F)c3)=NO2)CO1 [Example I-26]
Alopecurus myosuroides [1]
  Pre-emergence herbicidal activity in % against ALOMY: 100%
Avena fatua [2]
  Pre-emergence herbicidal activity in % against AVEVA (AVEFA): 90%
Echinochloa crus-galli [3]
  Pre-emergence herbicidal activity in % against ECHCG: 90%
Lolium rigidum [4]
  Pre-emergence herbicidal activity in % against LOLRI: 100%
Setaria viridis [5]
  Pre-emergence herbicidal activity in % against SETVI: 90%
Amaranthus retroflexus [6]
  Pre-emergence herbicidal activity in % against AMARE: 100%
Polygonum convolvulus [7]
  Pre-emergence herbicidal activity in % against POLCO: 90%
Stellaria media [8]
  Pre-emergence herbicidal activity in % against STEME: 100%
Viola tricolor [9]
  Pre-emergence herbicidal activity in % against VIOTR: 80%
Veronica persica [10]
  Pre-emergence herbicidal activity in % against VERPE: 80%
Hordeum murinum [11]
  Pre-emergence herbicidal activity in % against HORMU: 90%
Alopecurus myosuroides [12]
  Post-emergence herbicidal activity in % against ALOMY: 100%
Avena fatua [13]
  Post-emergence herbicidal activity in % against AVEFA: 100%
Echinochloa crus-galli [14]
  Post-emergence herbicidal activity in % against ECHCG: 100%
Lolium rigidum [15]
  Post-emergence herbicidal activity in % against LOLRI: 100%
Setaria viridis [16]
  Post-emergence herbicidal activity in % against SETVI: 80%
Abutilon theophrasti
  Post-emergence herbicidal activity in % against ABUTH: 80%
Amaranthus retroflexus [17]
  Post-emergence herbicidal activity in % against AMARE: 80%
Pharbitis purpurea
  Post-emergence herbicidal activity in % against PHBPU: 90%
Polygonum convolvulus [18]
  Post-emergence herbicidal activity in % against POLCO: 80%
Stellaria media [19]
  Post-emergence herbicidal activity in % against STEME: 100%
Viola tricolor [20]
  Post-emergence herbicidal activity in % against VIOTR: 90%
Veronica persica [21]
  Post-emergence herbicidal activity in % against VERPE: 80%
Hordeum murinum [22]
  Post-emergence herbicidal activity in % against HORMU: 100%
